Patent US11033518B2, “Pharmaceutical composition containing niclosamide for treating axin-GSK3 interaction-related diseases” (BAOBAB PHARM CO., LTD., priority 2017, dated 2021)

What was measured:
beta-catenin (β-catenin) = assay: beta-catenin western blot in colorectal cancer cells; assay type: cell-based; conditions: 0, 0.125, 0.25, 0.5 nM, 24 hours; as concentration increased
Procedure: (§1) At first, after treating niclosamide of nM units at concentrations of 0 nM, 0.125 nM, 0.25 nM and 0.5 nM to colorectal cancer cells for 24 hours, the beta-catenin (β-catenin) activity and TCF/LEF reporter (Topflash) activity of colorectal cancer cells were measured.
For beta-catenin, western blot was performed using β-catenin (#610154, BD Transduction, 1:5,000) antibody, and as a result, as shown in B (left) of FIG. 1, expression of beta-catenin in colorectal cancer cells was reduced as the concentration of treated niclosamide was increased.

[1] = system: GSK3, β-catenin and Snail; assay: Immunoblotting of nucleo-cytoplasm fractions of colorectal cancer cells; assay type: cell-based; conditions: 0.25 nM, 24 hours, HCT116, SW480 and DLD-1
Procedure: After treating niclosamide of 0.25 nM to colorectal cancer cell lines HCT116, SW480 and DLD-1 cells for 24 hours, the amount of GSK3, β-catenin and Snail of nucleo-cytoplasm fractions was analyzed by immunoblotting.
The amount of Snail and GSK3 protein in cells was confirmed by separating nuclei and cytoplasm in the hypotonic solution (Kim N H, et al., Sci Signal. 4:ra71, 2011; Yook J I, et al. Nat Cell Biol., 8:[…], 2006). Briefly, after collecting colorectal cancer cells (1×10^6 cells) in a centrifugation tube, they were washed with PBS and were treated with the hypotonic solution (10 mM HEPES, pH7.9; 10 mM KCl; 1 mM DTT with protease inhibitors) 400 μl on ice for 5 minutes. The cell membrane was degraded by addition of 10% NP-40, and the final concentration was adjusted to 0.6% final concentration, and then was mixed well and high-speed centrifugation was conducted for 30 seconds. The cytoplasmic resolvents were separated and nuclear precipitates were washed with cold PBS twice. The nucleoprotein was extracted by treating hypertonic buffer (20 mM HEPES, pH7.9; 0.4 M NaCl; 1 mM DTT with protease inhibitors) on ice for 15 minutes, and then high-speed centrifugation was conducted, and the amount of GSK3, β-catenin and Snail of nucleo-cytoplasm fractions was analyzed by immunoblotting.

[2] = system: HCT116, SW480 and DLD-1 cells; assay: Cell mobility of colorectal cancer cells through basement membrane; assay type: cell-based; conditions: nM level, 48 hours
Procedure: At first, the effect on the cell mobility of colorectal cancer cells of niclosamide was confirmed. Colorectal cancer cell lines HCT116, SW480 and DLD-1 cells were cultured under the condition with or without niclosamide for 48 hours, and then the upper part of the membrane was rubbed with a cotton swab and the number of movements of cells inserted into the basement membrane was stained with 0.25% crystal violet and counted. Cells were counted in five random fields.

[3] = system: TCF/LEF transcriptional activity; assay: TCF/LEF reporter (Topflash) dual luciferase assay in colorectal cancer cells; assay type: cell-based; conditions: 0, 0.125, 0.25, 0.5 nM; as concentration increased
Procedure: as §1
The TCF/LEF transcriptional activity was carried out by transformation with 100 ng of a reporter gene and 1 ng of transfection control pRL-SV40-Renilla. The reporter activity was measured with a dual luciferase assay system (Promega) in 48 hours after infection, and was standardized by measuring the co-transformed renilla activity, and the reporter gene activity was represented by light units in proportion to light units obtained from the negative control group.

Snail, E-cadherin = assay: Snail western blot and E-cadherin dual luciferase assay in colorectal cancer cells; assay type: cell-based; conditions: as concentration increased
From the text: In order to confirm whether niclosamide induced snail-mediated EMT recovery, beta-catenin (β-catenin) expression and TCF/LEF reporter (Topflash) activity change, and Snail and E-cadherin protein expression were confirmed.
Through the western blot, Snail expression change was confirmed, and through the dual luciferase assay system, the expression of E-cadherin protein was confirmed.

[4] = system: colorectal cancer cell lines HCT116, SW480 and DLD-1; assay: Trypan blue cell viability / apoptosis of colorectal cancer cells; assay type: cell-based; conditions: 48 hours, trypan blue assay
Procedure: 1×10^5 cells of colorectal cancer cell lines HCT116, SW480 and DLD-1 cell (ATCC, American Type Culture Collection) were cultured overnight in a 6-well plate, and then were washed with PBS, and were cultured in a culture medium treated with niclosamide by each concentration (0 μM, 0.125 μM, 0.25 μM, 0.5 μM, 1 μM, 2 μM, 5 μM and 10 μM) for 48 hours. Apoptosis was measured with trypan blue assay and cell viability was calculated by an equation [1−(number of dead cells/total number of cells)].

[5] = molecular target: T1, recombinant GSK3 beta - Axin peptide interaction (Homo sapiens, UniProt P49841); assay: Competitive binding of FITC-linked 19-mer Axin peptide to recombinant GSK3 (fluorometry); conditions: 2 hours, Ni-Ti beads
T1 construct: made in house; host or cells: Sf9 insect cells (GSK3 beta); The peptide was synthesized by Peptron
From the text: Since it was disclosed that the hydrophobic residues of alpha helix of Axin were accumulated to the hydrophobic groove formed by the C-terminal loop of GSK3, in the result of structural analysis of Axin-GSK3 binding announced in the past (Dajani R et al., EMBO J. 22:494-501, 2003), the present inventors hypothesized that niclosamide binds to the hydrophobic groove of GSK3 and interferes with the function of Axin, and in order to confirm it, they designed in vitro analysis to confirm competitive inhibition by niclosamide of recombinant GSK3 which binds to a 19-mer FITC-linked Axin peptide.
His-tagged recombinant GSK3 beta was obtained from sf9 insect cells by the known method (Lee D G, et al. Nat Commun. 5:4423, 2014). The FITC-linked 19-mer Axin peptide known to bind to GSK3 as amphipathic alpha-helix (Axin1, 383-401, VEPQKFAEELIHRLEAVQR) was chemically synthesized (Peptron). In order to confirm competitive binding of the synthesized Axin peptide and niclosamide, His-tagged recombinant GSK3 and […] were treated with niclosamide for 2 hours, and were washed with PBS 3 times and then quantitative fluorometry was performed using […]. The fluorescence strength was shown in proportion to the fluorescence strength obtained in the negative control group from 3 times of experiments.

T1 sequence (P49841 whole entry): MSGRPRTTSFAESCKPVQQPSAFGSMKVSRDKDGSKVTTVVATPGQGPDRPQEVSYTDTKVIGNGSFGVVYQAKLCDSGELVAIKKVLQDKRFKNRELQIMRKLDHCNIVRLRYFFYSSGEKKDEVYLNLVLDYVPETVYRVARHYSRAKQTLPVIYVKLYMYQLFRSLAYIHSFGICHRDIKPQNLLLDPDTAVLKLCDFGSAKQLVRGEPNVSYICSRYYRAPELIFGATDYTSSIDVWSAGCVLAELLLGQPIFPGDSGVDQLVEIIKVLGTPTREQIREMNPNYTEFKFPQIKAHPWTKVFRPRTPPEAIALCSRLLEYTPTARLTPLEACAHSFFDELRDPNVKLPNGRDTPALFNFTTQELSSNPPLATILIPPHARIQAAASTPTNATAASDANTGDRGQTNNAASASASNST

With `O=C(Nc1ccc([N+](=O)[O-])cc1Cl)c1cc(Cl)ccc1O` [niclosamide] the expression of beta-catenin (beta-catenin (β-catenin)) was “reduced”, the GSK3 of nuclei [1] was “increased” and the “amount of Snail” value [1] was “reduced”. For the same compound, the amount of beta-catenin [1] was “reduced”, the “potential of movements of colorectal cancer cells” value [2] was “largely reduced” and the TCF/LEF transcriptional activity [3] was “reduced”. The “E-cadherin (promoter activity)” value (Snail, E-cadherin; dual luciferase assay) was “increased”, the “expression of Snail” value (Snail, E-cadherin; western blot) was “reduced” and the apoptosis ([4]; nM concentration) was “did not occur”. For the same compound, the “death of colorectal cells” value ([4]; μM concentration level) was “induced death” and the “interaction between recombinant GSK3 and synthesized Axin peptide” value [5] was “inhibited in proportion to the administration concentration”.
